{"source": "patent US20130164233A1", "about": "“SKIN-WHITENING ESSENCE COMPOSITION CONTAINING TYROSINASE INHIBITOR” (priority 2011, published 2013)", "origin": "cited, not measured here", "tested_on": "skin", "settings": "conventionally"}
{"smiles": "NC[C@H]1CC[C@H](C(=O)O)CC1", "note": "[tranexamic acid]", "values": [{"measurement": "Concentration needed to give whitening effect", "result": "higher than 3%"}]}
